What was measured:
Type in all cases: cell-based
[1] = system: Microsporum canis; assay: Antifungal activity in vitro, resazurin growth inhibition: Microsporum canis (B68128)
Summary of the method: (§1)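 Resazurin conversion to fluorescent resorufin (ex 550/em 590 nm) served as the growth readout. Compounds spanned 2- or 4-fold serial dilutions with 64 μM top in-test concentration; inoculum 10^3 cfu per well in MOPS-buffered RPMI-1640 (pH 7.0, 2% glucose). Incubation species-dependent, dermatophytes at 27° C. for ≥1 week.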

[2] = system: Trichophyton mentagrophytes; assay: Antifungal activity in vitro, resazurin growth inhibition: Trichophyton mentagrophytes (B70554)
Summary of the method: as §1

[3] = system: Trichophyton rubrum; assay: Antifungal activity in vitro, resazurin growth inhibition: Trichophyton rubrum (B68183)
Summary of the method: as §1

[4] = system: Scedosporium apiospermum; assay: Antifungal activity in vitro, resazurin growth inhibition: Scedosporium apiospermum (IHEM3817)
Summary of the method: (§2)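 Fungi (10^3 cfu/well) grown in RPMI-1640 with L-glutamine, 2% glucose, MOPS pH 7.0, against 2- or 4-fold compound dilutions up to 64 μM. Dermatophytes incubated one week or more at 27° C. Growth inhibition read fluorimetrically (λex 550, λem 590 nm) after resazurin addition and further incubation.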

[5] = system: Scedosporium prolificans; assay: Antifungal activity in vitro, resazurin growth inhibition: Scedosporium prolificans (IHEM21157)
Summary of the method: as §2

[6] = system: Sporothrix schenkii; assay: Antifungal activity in vitro, resazurin growth inhibition: Sporothrix schenkii (B62482)
Summary of the method: as §2

[7] = system: Aspergillus fumigatus; assay: Antifungal activity in vitro, resazurin growth inhibition: Aspergillus fumigatus (B42928)
Summary of the method: as §2

[8] = system: Candida parapsilosis; assay: Antifungal activity in vitro, resazurin growth inhibition: Candida parapsilosis (B66126)
Summary of the method: as §2

[9] = system: Cryptococcus neoformans; assay: Antifungal activity in vitro, resazurin growth inhibition: Cryptococcus neoformans (B66663)
Summary of the method: as §2

[10] = system: Rhizopus oryzae; assay: Antifungal activity in vitro, resazurin growth inhibition: Rhizopus oryzae (IHEM5223)
Summary of the method: as §2

[11] = system: Rhizomucor miehei; assay: Antifungal activity in vitro, resazurin growth inhibition: Rhizomucor miehei (IHEM13391)
Summary of the method: as §2

Row | Structure (SMILES) | Inf. B: Microsporum canis B68128, pIC50 [1] | Inf. G: Trichophyton mentagrophytes B70554, pIC50 [2] | Inf. C: Trichophyton rubrum B68183, pIC50 [3] | Inf. H: Scedosporium apiospermum IHEM3817, pIC50 [4] | Inf. I: Scedosporium prolificans IHEM21157, pIC50 [5] | Inf. A: Sporothrix schenkii B62482, pIC50 [6] | Inf. E: Aspergillus fumigatus B42928, pIC50 [7] | Inf. D: Candida parapsilosis B66126, pIC50 [8] | Inf. F: Cryptococcus neoformans B66663, pIC50 [9] | Inf. J: Rhizopus oryzae IHEM5223, pIC50 [10] | Inf. K: Rhizomucor miehei IHEM13391, pIC50 [11]
1 | Clc1cccc2c1CN=C(c1ccc3occ(Cl)c3c1)c1cccn1-2 [Compound 152] | 6.34 | 6.46 | 6.85 | 4.28 | 5.15 | 5.11 | 6.26 | 5.59 | 5.82 | <4.19 | <4.19
2 | Fc1cc(F)c2c(c1)-n1cccc1C(c1cc3cc(Cl)cnc3o1)=NC2 [Compound 158] | 5.70 | 5.17 | 5.72 | 4.37 | 6.00 | <4.19 | <4.19 | <4.19 | 5.20 | <4.19 | <4.19
3 | Clc1cccc2c1CN=C(c1cnc3occc3c1)c1cccn1-2 [Compound 161] | 5.96 | 5.40 | 6.12 | 6.47 | 6.27 | 5.02 | 5.04 | <4.19 | 4.56 | <4.19 | <4.19
4 | c1ccc2c(c1)CN=C(c1cc3ccccc3s1)c1cccn1-2 [Compound 163] | 6.14 | 5.99 | 6.71 | 5.63 | 6.27 | 5.59 | 5.61 | 5.12 | 6.51 | 4.98 | 5.06
5 | Cc1cccc2c1-n1cccc1C(c1cc3ccccc3s1)=NC2 [Compound 164] | 5.86 | 6.29 | 6.51 | 5.66 | 6.44 | 5.40 | 5.70 | 4.97 | 5.85 | <4.19 | 5.15
6 | Clc1cccc2c1CN=C(c1cc3ccccc3s1)c1cccn1-2 [Compound 165] | 6.19 | 5.86 | 6.70 | <4.19 | 4.46 | 5.12 | 5.28 | <4.19 | 5.81 | <4.19 | <4.19
7 | Clc1ccc2c(c1)-n1cccc1C(c1cc3ccccc3s1)=NC2 [Compound 166] | 5.70 | 5.52 | 5.70 | 4.33 | 5.65 | 5.52 | 6.00 | <4.19 | 6.00 | 5.37 | <4.19
8 | Clc1cccc2c1-n1cccc1C(c1cc3ccccc3s1)=NC2 [Compound 167] | 6.01 | 5.97 | 6.79 | 5.72 | 6.31 | 5.70 | 5.38 | 4.90 | 5.86 | <4.19 | 5.10
9 | Clc1cc(Cl)c2c(c1)-n1cccc1C(c1cc3ccccc3s1)=NC2 [Compound 168] | 4.96 | 6.40 | 6.18 | <4.19 | 6.48 | 6.22 | 6.73 | <4.19 | 6.41 | <4.19 | <4.19
10 | Fc1cccc2cc(C3=NCc4c(Cl)cccc4-n4cccc43)sc12 [Compound 170] | 6.23 | 6.18 | 6.63 | 5.63 | 6.51 | 5.55 | 5.74 | <4.19 | 6.47 | <4.19 | <4.19
11 | Clc1cccc2c1CN=C(c1ccc3ccsc3c1)c1cccn1-2 [Compound 172] | 6.90 | 6.81 | 7.35 | 5.15 | 5.45 | 5.59 | 6.29 | 5.80 | 5.85 | <4.19 | 4.72
12 | Clc1ccc2c(c1)-n1cccc1C(c1ccc3sccc3c1)=NC2 [Compound 173] | 6.54 | 6.51 | 6.41 | 5.08 | 4.54 | 5.70 | 6.30 | 5.71 | 6.41 | <4.19 | 5.08

Reference: US9493468B2, “Antifungal 5,6-dihydro-4H-pyrrolo[1,2-a][1,4]benzo-diazepines and 6H-pyrrolo[1,2-a][1,4]benzodiazepines substituted with heterocyclic derivatives” (Janssen Pharmaceutica NV, priority 2011, dated 2016)
